Test results as given in US9545105B2, “1-(heterocyclic carbonyl) piperidines” (BAYER INTELLECTUAL PROPERTY GMBH, priority 2010, dated 2017).

Experiments:
[1] = system: Alternaria solani; experiment: In vivo preventive test on Alternaria solani (tomato); settings: 500 ppm of active ingredient, evaluated 7 days after inoculation
Method in brief: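 Young tomato plants were sprayed preventively with compound in DMF/alkylarylpolyglycolether diluted in water, then inoculated one day later with A. solani spores. Incubation was 1 day at about 22 °C and 100% RH, then about 20 °C and 96% RH. Efficacy was scored 7 days after inoculation (0% = untreated control, 100% = no disease).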

[2] = system: Venturia inaequalis; experiment: In vivo preventive test on Venturia inaequalis (apple scab); settings: 100 ppm of active ingredient, evaluated 10 days after inoculation
Experimental: (§1) Solvent: 24.5 parts by weight of acetone • 24.5 parts by weight of N,N-dimethylacetamide Emulsifier: 1 part by weight of alkylaryl polyglycol ether To produce a suitable preparation of active compound, 1 part by weight of active compound is mixed with the stated amounts of solvent and emulsifier, and the concentrate is diluted with water to the desired concentration. To test for preventive activity, young plants are sprayed with the preparation of active compound at the stated rate of application. After the spray coating has dried on, the plants are inoculated with an aqueous conidia suspension of the causal agent of apple scab (Venturia inaequalis) and then remain for 1 day in an incubation cabinet at approximately 20° C. and a relative atmospheric humidity of 100%. The plants are then placed in a greenhouse at approximately 21° C. and a relative atmospheric humidity of approximately 90%. The test is evaluated 10 days after the inoculation. 0% means an efficacy which corresponds to that of the untreated control, while an efficacy of 100% means that no disease is observed.

[3] = system: Septoria tritici; experiment: In vivo preventive test on Septoria tritici (wheat); settings: 500 ppm of active ingredient, evaluated 21 days after inoculation
Experimental: (§2) Solvent: 49 parts by weight of N,N-dimethylacetamide Emulsifier: 1 part by weight of alkylaryl polyglycol ether To produce a suitable preparation of active compound, 1 part by weight of active compound or active compound combination is mixed with the stated amounts of solvent and emulsifier, and the concentrate is diluted with water to the desired concentration. To test for preventive activity, young plants are sprayed with the preparation of active compound or active compound combination at the stated rate of application. After the spray coating has been dried, the plants are sprayed with a spore suspension of Septoria tritici. The plants remain for 48 hours in an incubation cabinet at approximately 20° C. and a relative atmospheric humidity of approximately 100% and afterwards for 60 hours at approximately 15° C. in a translucent incubation cabinet at a relative atmospheric humidity of approximately 100%. The plants are placed in the greenhouse at a temperature of approximately 15° C. and a relative atmospheric humidity of approximately 80%. The test is evaluated 21 days after the inoculation. 0% means an efficacy which corresponds to that of the untreated control, while an efficacy of 100% means that no disease is observed.

[4] = system: Sphaerotheca fuliginea; experiment: In vivo preventive test on Sphaerotheca fuliginea (cucumber); settings: 500 ppm of active ingredient, evaluated 7 days after inoculation
Experimental: Solvent: 49 parts by weight of N,N-dimethylformamide Emulsifier: 1 part by weight of Alkylarylpolyglycolether To produce a suitable preparation of active compound, 1 part by weight of active compound is mixed with the stated amounts of solvent and emulsifier, and the concentrate is diluted with water to the desired concentration. To test for preventive activity, young plants are sprayed with the preparation of active compound at the stated rate of application. One day after this treatment, the plants are inoculated with an aqueous spore suspension of Sphaerotheca fuliginea. Then the plants are placed in a greenhouse at approximately 23° C. and a relative atmospheric humidity of approximately 70%. The test is evaluated 7 days after the inoculation. 0% means an efficacy which corresponds to that of the untreated control, while an efficacy of 100% means that no disease is observed.

[5] = system: Uromyces appendiculatus; experiment: In vivo preventive test on Uromyces appendiculatus (bean rust); settings: 100 ppm of active ingredient, evaluated 10 days after inoculation
Experimental: as §1, with “spore” for “conidia”, “bean rust (Uromyces appendiculatus)” for “apple scab (Venturia inaequalis)”

[6] = system: Pyrenophora teres; experiment: In vivo preventive test on Pyrenophora teres (barley); settings: 500 ppm of active ingredient, evaluated 7-9 days after inoculation
Method in brief: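 Young barley plants sprayed with compound in DMF/alkylaryl polyglycol ether emulsion; inoculated with P. teres spores one day later. 48 h at 22 °C, 100% humidity, then greenhouse ~20 °C, ~80% humidity; efficacy scored 7-9 days post-inoculation, 0% = untreated, 100% = no disease.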

[7] = system: Puccinia triticina; experiment: In vivo preventive test on Puccinia triticina (wheat); settings: 500 ppm of active ingredient, evaluated 8 days after inoculation
Experimental: as §2, with “Puccinia triticina.” for “Septoria tritici.”, “approximately” for “approximately 100% and afterwards for 60 hours at approximately 15° C. in a translucent incubation cabinet at a relative atmospheric humidity of approximately”, “20°” for “15°”, “8” for “21”

Structure (SMILES) | Efficacy [1] | Efficacy [2] | Efficacy [3] | Efficacy [4] | Efficacy [5] | Efficacy [6] | Efficacy [7]
Cc1cc(C)cc(C2CCCCN2C(=O)c2c(C)nn(C)c2F)c1 (centres unmarked) [Example 10] | 90% | 100% | 70% | 95% | 100% | 100% | 88%
CCc1nn(C)c(F)c1C(=O)N1CCCCC1c1cc(C)cc(C)c1 (centres unmarked) [Example 11] | 100% | 100% | 100% | 95% | 98% | 100% | 100%
CCc1nn(C)c(F)c1C(=O)N1CCCCC1c1ccc(Cl)cc1 (centres unmarked) [Example 54] | 95% | 98% | 100% | – | 96% | 100% | 100%
CCC(c1ccccc1)C1CCCCN1C(=O)c1c(C(F)F)nn(C)c1F (centres unmarked) [Example 136] | 100% | 100% | 100% | 98% | 78% | 100% | –
CCC(c1ccccc1)C1CCCCN1C(=S)c1c(C(F)F)nn(C)c1F (centres unmarked) [Example 140] | 100% | 100% | 100% | 100% | 94% | 100% | –
